Measurements as given in ChEMBL document CHEMBL3885861, “Open TG-GATES”.

Organism: Rattus norvegicus
Experiment: Open TG-GATES - Regimen: Daily Repeat
Format: toxicity, organism-based, Sprague-Dawley
Set-up: regimen Daily Repeat, gender Male, age 6 weeks
Conditions: in vivo, po, route gavage; for APTT / Bas / Eos / Fbg / Hb / Ht / Lym / MCH / MCHC / MCV / Mono / Neu / PT / Plat / RBC / Ret / WBC: tissue Blood; for KIDNEY_L / KIDNEY_R / KIDNEY_TOTAL: tissue Kidney; for LIVER: tissue Liver; for A/G / ALP / ALT / AST / BUN / CRE / Ca / Cl / DBIL / GLC / IP / K / LDH / Na / PL / RALB / TBIL / TC / TG / TP / gamma-GTP: tissue Plasma
[1] = 300 mg/kg, 72 h, dose level Middle, time 3 day
[2] = 300 mg/kg, […], dose level Middle, time 7 day
[3] = 300 mg/kg, […], dose level Middle, time 14 day
[4] = 300 mg/kg, […], dose level Middle, time 28 day
[5] = 1000 mg/kg, 72 h, dose level High, time 3 day
[6] = 1000 mg/kg, […], dose level High, time 7 day
[7] = 1000 mg/kg, […], dose level High, time 14 day
[8] = 1000 mg/kg, […], dose level High, time 28 day

CCCCNC(=O)NS(=O)(=O)c1ccc(C)cc1 [TOLBUTAMIDE]
TERMINAL_BW [1]: 233.2 g
APTT [1]: 17 s
Bas [1]: 0%
Eos [1]: 1%
Fbg [1]: 287.2 mg/dL
Hb [1]: 13.7 g/dL
Ht [1]: 41.8%
Lym [1]: 80%
MCH [1]: 20.8 pg
MCHC [1]: 32.8%
MCV [1]: 63.2 fL
Mono [1]: 2.6%
Neu [1]: 15.6%
PT [1]: 13 s
Plat [1]: 122.8 x10_4/uL
RBC [1]: 661 x10_4/ul
Ret [1]: 6.3%
WBC [1]: 108 x10_2/uL
KIDNEY_L [1]: 1 g
KIDNEY_R [1]: 1 g
KIDNEY_TOTAL [1]: 2 g
LIVER [1]: 10.8 g
A/G [1]: 0.9
ALP [1]: 1683.8 IU/L
ALT [1]: 49.4 IU/L
AST [1]: 70.2 IU/L
BUN [1]: 13.2 mg/dL
CRE [1]: 0.2 mg/dL
Ca [1]: 11.1 mg/dL
Cl [1]: 105 meq/L
DBIL [1]: 0.01 mg/dL
GLC [1]: 176.6 mg/dL
IP [1]: 8.2 mg/dL
K [1]: 4 meq/L
LDH [1]: 69.8 IU/L
Na [1]: 142.4 meq/L
PL [1]: 151 mg/dL
RALB [1]: 2.6 g/dL
TBIL [1]: 0.062 mg/dL
TC [1]: 79.2 mg/dL
TG [1]: 86.4 mg/dL
TP [1]: 5.5 g/dL
gamma-GTP [1]: 1 IU/L
TERMINAL_BW [2]: 265.6 g
TERMINAL_BW [3]: 327.4 g
TERMINAL_BW [4]: 387.4 g
APTT [2]: 17.8 s
Bas [2]: 0.4%
Eos [2]: 1%
Fbg [2]: 287 mg/dL
Hb [2]: 14 g/dL
Ht [2]: 42.1%
Lym [2]: 81.6%
MCH [2]: 20.9 pg
MCHC [2]: 33.3%
MCV [2]: 62.5 fL
Mono [2]: 2.2%
Neu [2]: 14.6%
PT [2]: 12.7 s
Plat [2]: 118.8 x10_4/uL
RBC [2]: 674.4 x10_4/ul
Ret [2]: 5.3%
WBC [2]: 114.8 x10_2/uL
APTT [3]: 18 s
Bas [3]: 0.4%
Eos [3]: 1%
Fbg [3]: 290.4 mg/dL
Hb [3]: 14.6 g/dL
Ht [3]: 44.4%
Lym [3]: 78.2%
MCH [3]: 19.6 pg
MCHC [3]: 32.8%
MCV [3]: 59.8 fL
Mono [3]: 1.8%
Neu [3]: 18.4%
PT [3]: 12.8 s
Plat [3]: 120.3 x10_4/uL
RBC [3]: 743.4 x10_4/ul
Ret [3]: 4.3%
WBC [3]: 98.4 x10_2/uL
APTT [4]: 20 s
Bas [4]: 0.6%
Eos [4]: 1%
Fbg [4]: 266.6 mg/dL
Hb [4]: 15.4 g/dL
Ht [4]: 45.4%
Lym [4]: 81.4%
MCH [4]: 18.7 pg
MCHC [4]: 34%
MCV [4]: 55.2 fL
Mono [4]: 2.4%
Neu [4]: 13.8%
PT [4]: 13.4 s
Plat [4]: 102.9 x10_4/uL
RBC [4]: 823.4 x10_4/ul
Ret [4]: 2.2%
WBC [4]: 134 x10_2/uL
KIDNEY_L [2]: 1.1 g
KIDNEY_R [2]: 1.1 g
KIDNEY_TOTAL [2]: 2.2 g
KIDNEY_L [3]: 1.3 g
KIDNEY_R [3]: 1.3 g
KIDNEY_TOTAL [3]: 2.5 g
KIDNEY_L [4]: 1.4 g
KIDNEY_R [4]: 1.4 g
KIDNEY_TOTAL [4]: 2.8 g
LIVER [2]: 12.4 g
LIVER [3]: 14.8 g
LIVER [4]: 15.5 g
A/G [2]: 0.8
ALP [2]: 1624 IU/L
ALT [2]: 42 IU/L
AST [2]: 65.2 IU/L
BUN [2]: 16.6 mg/dL
CRE [2]: 0.2 mg/dL
Ca [2]: 10.8 mg/dL
Cl [2]: 103.8 meq/L
DBIL [2]: 0.008 mg/dL
GLC [2]: 204.8 mg/dL
IP [2]: 7.5 mg/dL
K [2]: 4.1 meq/L
LDH [2]: 57.4 IU/L
Na [2]: 141 meq/L
PL [2]: 161 mg/dL
RALB [2]: 2.5 g/dL
TBIL [2]: 0.052 mg/dL
TC [2]: 76.4 mg/dL
TG [2]: 135.8 mg/dL
TP [2]: 5.6 g/dL
gamma-GTP [2]: 1 IU/L
A/G [3]: 0.8
ALP [3]: 1281 IU/L
ALT [3]: 41.4 IU/L
AST [3]: 69 IU/L
BUN [3]: 16 mg/dL
CRE [3]: 0.2 mg/dL
Ca [3]: 10.9 mg/dL
Cl [3]: 104.2 meq/L
DBIL [3]: 0.012 mg/dL
GLC [3]: 193.4 mg/dL
IP [3]: 6.9 mg/dL
K [3]: 4 meq/L
LDH [3]: 55.4 IU/L
Na [3]: 142.2 meq/L
PL [3]: 158.6 mg/dL
RALB [3]: 2.7 g/dL
TBIL [3]: 0.06 mg/dL
TC [3]: 76.4 mg/dL
TG [3]: 127.2 mg/dL
TP [3]: 5.8 g/dL
gamma-GTP [3]: 1 IU/L
A/G [4]: 0.8
ALP [4]: 1057.2 IU/L
ALT [4]: 39.8 IU/L
AST [4]: 65.6 IU/L
BUN [4]: 16 mg/dL
CRE [4]: 0.2 mg/dL
Ca [4]: 10.7 mg/dL
Cl [4]: 104.2 meq/L
DBIL [4]: 0.01 mg/dL
GLC [4]: 190 mg/dL
IP [4]: 6.7 mg/dL
K [4]: 3.9 meq/L
LDH [4]: 55 IU/L
Na [4]: 142.8 meq/L
PL [4]: 157.2 mg/dL
RALB [4]: 2.8 g/dL
TBIL [4]: 0.06 mg/dL
TC [4]: 74.6 mg/dL
TG [4]: 152.2 mg/dL
TP [4]: 6.1 g/dL
gamma-GTP [4]: 1 IU/L
TERMINAL_BW [5]: 225.8 g
APTT [5]: 17.7 s
Bas [5]: 0%
Eos [5]: 1%
Fbg [5]: 301.6 mg/dL
Hb [5]: 13.7 g/dL
Ht [5]: 41.6%
Lym [5]: 81%
MCH [5]: 21.2 pg
MCHC [5]: 33%
MCV [5]: 64.2 fL
Mono [5]: 2.2%
Neu [5]: 15.2%
PT [5]: 12.8 s
Plat [5]: 129.6 x10_4/uL
RBC [5]: 647.4 x10_4/ul
Ret [5]: 4.2%
WBC [5]: 89.2 x10_2/uL
KIDNEY_L [5]: 1 g
KIDNEY_R [5]: 1 g
KIDNEY_TOTAL [5]: 2.1 g
LIVER [5]: 11.5 g
A/G [5]: 0.9
ALP [5]: 1487 IU/L
ALT [5]: 40.8 IU/L
AST [5]: 69.6 IU/L
BUN [5]: 12.8 mg/dL
CRE [5]: 0.2 mg/dL
Ca [5]: 11 mg/dL
Cl [5]: 105.2 meq/L
DBIL [5]: 0.004 mg/dL
GLC [5]: 172 mg/dL
IP [5]: 7.9 mg/dL
K [5]: 3.9 meq/L
LDH [5]: 75.6 IU/L
Na [5]: 142.4 meq/L
PL [5]: 144 mg/dL
RALB [5]: 2.6 g/dL
TBIL [5]: 0.06 mg/dL
TC [5]: 76.8 mg/dL
TG [5]: 68 mg/dL
TP [5]: 5.5 g/dL
gamma-GTP [5]: 1 IU/L
TERMINAL_BW [6]: 255.2 g
TERMINAL_BW [7]: 306.7 g
TERMINAL_BW [8]: 411.9 g
APTT [6]: 18.1 s
Bas [6]: 0.4%
Eos [6]: 0.6%
Fbg [6]: 267.4 mg/dL
Hb [6]: 13.7 g/dL
Ht [6]: 41.4%
Lym [6]: 80%
MCH [6]: 20.5 pg
MCHC [6]: 33.1%
MCV [6]: 61.9 fL
Mono [6]: 2.4%
Neu [6]: 16.2%
PT [6]: 12.9 s
Plat [6]: 112 x10_4/uL
RBC [6]: 669.6 x10_4/ul
Ret [6]: 5.3%
WBC [6]: 138.8 x10_2/uL
APTT [7]: 19.2 s
Bas [7]: 0.4%
Eos [7]: 0.8%
Fbg [7]: 320 mg/dL
Hb [7]: 14.3 g/dL
Ht [7]: 43.7%
Lym [7]: 82.8%
MCH [7]: 19.3 pg
MCHC [7]: 32.7%
MCV [7]: 59.1 fL
Mono [7]: 1.8%
Neu [7]: 13.8%
PT [7]: 12.5 s
Plat [7]: 127.9 x10_4/uL
RBC [7]: 740 x10_4/ul
Ret [7]: 4.3%
WBC [7]: 116.4 x10_2/uL
APTT [8]: 25 s
Bas [8]: 0.2%
Eos [8]: 1%
Fbg [8]: 269.5 mg/dL
Hb [8]: 15 g/dL
Ht [8]: 45%
Lym [8]: 84.5%
MCH [8]: 18.6 pg
MCHC [8]: 33.5%
MCV [8]: 55.6 fL
Mono [8]: 2%
Neu [8]: 11.2%
PT [8]: 13.5 s
Plat [8]: 102.5 x10_4/uL
RBC [8]: 808.8 x10_4/ul
Ret [8]: 2.1%
WBC [8]: 118.3 x10_2/uL
KIDNEY_L [6]: 1.1 g
KIDNEY_R [6]: 1.1 g
KIDNEY_TOTAL [6]: 2.2 g
KIDNEY_L [7]: 1.2 g
KIDNEY_R [7]: 1.2 g
KIDNEY_TOTAL [7]: 2.4 g
KIDNEY_L [8]: 1.4 g
KIDNEY_R [8]: 1.3 g
KIDNEY_TOTAL [8]: 2.7 g
LIVER [6]: 12.3 g
LIVER [7]: 15 g
LIVER [8]: 18.7 g
A/G [6]: 0.9
ALP [6]: 1609.6 IU/L
ALT [6]: 48.6 IU/L
AST [6]: 71.4 IU/L
BUN [6]: 14.8 mg/dL
CRE [6]: 0.2 mg/dL
Ca [6]: 10.7 mg/dL
Cl [6]: 104 meq/L
DBIL [6]: 0.008 mg/dL
GLC [6]: 189.6 mg/dL
IP [6]: 7.7 mg/dL
K [6]: 4 meq/L
LDH [6]: 55.8 IU/L
Na [6]: 141.8 meq/L
PL [6]: 151.8 mg/dL
RALB [6]: 2.5 g/dL
TBIL [6]: 0.052 mg/dL
TC [6]: 74.2 mg/dL
TG [6]: 94.2 mg/dL
TP [6]: 5.4 g/dL
gamma-GTP [6]: 0.8 IU/L
A/G [7]: 0.9
ALP [7]: 1494.8 IU/L
ALT [7]: 42.4 IU/L
AST [7]: 63.4 IU/L
BUN [7]: 15 mg/dL
CRE [7]: 0.2 mg/dL
Ca [7]: 10.9 mg/dL
Cl [7]: 104.6 meq/L
DBIL [7]: 0.01 mg/dL
GLC [7]: 192.6 mg/dL
IP [7]: 6.8 mg/dL
K [7]: 3.8 meq/L
LDH [7]: 49.4 IU/L
Na [7]: 142.4 meq/L
PL [7]: 157.2 mg/dL
RALB [7]: 2.7 g/dL
TBIL [7]: 0.056 mg/dL
TC [7]: 72 mg/dL
TG [7]: 136.8 mg/dL
TP [7]: 5.9 g/dL
gamma-GTP [7]: 1 IU/L
A/G [8]: 0.8
ALP [8]: 1194 IU/L
ALT [8]: 36.5 IU/L
AST [8]: 59 IU/L
BUN [8]: 17.2 mg/dL
CRE [8]: 0.3 mg/dL
Ca [8]: 10.8 mg/dL
Cl [8]: 105.2 meq/L
DBIL [8]: 0.01 mg/dL
GLC [8]: 203.2 mg/dL
IP [8]: 6.5 mg/dL
K [8]: 3.7 meq/L
LDH [8]: 53.5 IU/L
Na [8]: 143.2 meq/L
PL [8]: 132 mg/dL
RALB [8]: 2.7 g/dL
TBIL [8]: 0.05 mg/dL
TC [8]: 58.2 mg/dL
TG [8]: 111.5 mg/dL
TP [8]: 6 g/dL
gamma-GTP [8]: 1 IU/L
